Active and inactive are the calls of the source.
Tests used:
[1] = growth suppression of beta-catenin-knockout colon cells, dose response, cell-based, HCT116, human colon tumor (AID 1045); assay type: functional;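 note: HCT116 colon tumor cells with beta catenin knocked out; cells exposed to compound for 60 hours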
[2] = growth suppression of PTEN-null colon cells, dose response, cell-based, HCT116 PTEN knockout (AID 1047); assay type: functional;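 note: HCT116 colon tumor cells with PTEN knocked out; cells exposed to compound for 60 hours before readout; potency for loss of cell viability measured by luminescence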
[3] = THP-1 cell cytotoxicity, dose response, cytotoxicity control for Vif-APOBEC3G degradation inhibitor project, THP-1 cells (AID 1117359); assay type: functional; settings: Human immunodeficiency virus 1, THP-1
[4] = A549 cell cytotoxicity, dose response, cytotoxicity control, plate reader, cherry-pick, antagonist series (AID 743412); assay type: functional, cell-based
[5] = HepG2 cell cytotoxicity, dose response, cytotoxicity control, plate reader, cherry-pick, antagonist series (AID 743416); assay type: functional, cell-based
[6] = cytotoxicity toward NIH3T3 fibroblasts, dose response, counter-screen, cell-based, ATP luminescence, mouse fibroblasts (AID 2010); assay type: functional;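 note: cells exposed to compound for about 90 hours before reading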
[7] = HEK293 cell cytotoxicity, dose response, cytotoxicity control, plate reader, cherry-picked samples (AID 743446); assay type: functional, cell-based
[8] = system: Streptococcus sp. 'group A'; assay: growth inhibition of control SK(-) GAS strain, dose response, counter-screen for streptokinase expression inhibitor project, luminescence, kanamycin, BacTiterGlo, confirmation (AID 1900); assay type: functional, organism-based
Streptococcus = assay: Group A Streptococcus viability loss, dose response, counter-screen for streptokinase expression inhibitor project, luminescence, BacTiterGlo (AID 1915); assay type: functional, organism-based;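 note: potency for reduction of bacterial viability or growth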
[9] = inhibitors of intracellular T. cruzi replication, confirmation, NIH3T3 host cells, beta-gal luminescence (AID 2044); assay type: functional, cell-based;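 note: intracellular parasites grown in NIH/3T3 mouse fibroblasts as host cells; luminescent beta-galactosidase reporter signal from transgenic T. cruzi replicating inside host cells; inhibitors lower the luminescence signal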
Streptokinase A = molecular target: T1, Streptokinase A (Streptococcus pyogenes serotype M1, UniProt P10520); assay: S. pyogenes streptokinase expression inhibitors, potency, dose response, plasminogen activation absorbance, OD405 (AID 1914); assay type: functional, Streptococcus pyogenes M1 GAS;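 note: secreted streptokinase activity via plasminogen activation per viability signal from cell pellet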
T1 sequence (P10520 whole entry): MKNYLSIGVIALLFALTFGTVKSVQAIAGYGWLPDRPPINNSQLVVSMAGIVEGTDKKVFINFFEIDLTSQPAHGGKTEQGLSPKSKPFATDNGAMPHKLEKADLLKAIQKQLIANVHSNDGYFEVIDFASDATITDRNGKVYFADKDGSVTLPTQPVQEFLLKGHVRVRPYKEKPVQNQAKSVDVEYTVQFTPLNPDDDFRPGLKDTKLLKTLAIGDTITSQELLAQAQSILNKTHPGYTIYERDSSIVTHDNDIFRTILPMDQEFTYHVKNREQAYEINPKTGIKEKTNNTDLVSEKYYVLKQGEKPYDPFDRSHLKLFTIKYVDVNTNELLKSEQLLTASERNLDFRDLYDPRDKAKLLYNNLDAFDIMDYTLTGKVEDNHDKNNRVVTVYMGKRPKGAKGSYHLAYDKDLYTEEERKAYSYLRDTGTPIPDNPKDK

[10] = molecular target: FAD-linked sulfhydryl oxidase ALR (Homo sapiens, UniProt P55789); assay: inhibitors of human ALR sulfhydryl oxidase, dose response, biochemical, H2O2 detection, luminescence, cherry-pick (AID 493248)
Sequence of FAD-linked sulfhydryl oxidase ALR (P55789 whole entry): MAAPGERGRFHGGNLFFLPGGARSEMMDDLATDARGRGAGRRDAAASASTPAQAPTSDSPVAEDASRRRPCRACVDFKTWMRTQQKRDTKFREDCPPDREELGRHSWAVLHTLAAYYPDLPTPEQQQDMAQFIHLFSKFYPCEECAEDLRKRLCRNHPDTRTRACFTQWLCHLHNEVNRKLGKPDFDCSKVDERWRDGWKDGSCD

[11] = Shn3 3'UTR reporter inhibitors, dose response, cell-based, Clone20 osteoblasts, firefly luciferase, cherry-picked (AID 624132); assay type: functional;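 note: firefly luciferase luminescence from reporter carrying the Shn3 3'UTR in osteoblasts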
INS1 = assay: beta cell apoptosis inhibitors, cytokine rescue, dose response, luminescence, retest (AID 449756); assay type: functional, cell-based; settings: Rattus norvegicus;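 note: cell death triggered by IL-1 beta plus TNF-alpha plus IFN-gamma mixture; protective hits raise ATP signal compared with cytokine alone wells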
[12] = HepG2 cell cytotoxicity, dose response, cytotoxicity control for Shn3 inhibitor project, CellTiter-Glo, cherry-picked (AID 624134); assay type: functional, cell-based
[13] = control 3'UTR Renilla luciferase suppression, dose response, counter-screen for Shn3 inhibitor project, cell-based, Clone20-Shn3RL, cherry-picked (AID 624133); assay type: functional
Nonstructural protein 1 = Nonstructural protein 1 (Influenza A virus, UniProt Q194T2); assay type: functional, Influenza A virus (A/California/07/2009(H1N1))
Sequence of Nonstructural protein 1 (Q194T2 whole entry): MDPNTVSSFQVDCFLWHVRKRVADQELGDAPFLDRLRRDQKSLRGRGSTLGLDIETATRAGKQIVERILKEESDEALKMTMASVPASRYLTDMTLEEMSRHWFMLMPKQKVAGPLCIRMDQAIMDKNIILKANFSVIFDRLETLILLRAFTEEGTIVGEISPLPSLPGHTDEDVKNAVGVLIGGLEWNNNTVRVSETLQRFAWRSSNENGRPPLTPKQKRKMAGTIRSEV

Leucine aminopeptidase = molecular target: T2, Leucine aminopeptidase (Plasmodium falciparum 3D7, UniProt Q8IL11); assay: P. falciparum M17LAP inhibitors, primary screen, biochemical, fluorogenic H-Leu-NHMec substrate, 1536-well (AID 1619); assay type: functional
T2 sequence (Q8IL11 whole entry): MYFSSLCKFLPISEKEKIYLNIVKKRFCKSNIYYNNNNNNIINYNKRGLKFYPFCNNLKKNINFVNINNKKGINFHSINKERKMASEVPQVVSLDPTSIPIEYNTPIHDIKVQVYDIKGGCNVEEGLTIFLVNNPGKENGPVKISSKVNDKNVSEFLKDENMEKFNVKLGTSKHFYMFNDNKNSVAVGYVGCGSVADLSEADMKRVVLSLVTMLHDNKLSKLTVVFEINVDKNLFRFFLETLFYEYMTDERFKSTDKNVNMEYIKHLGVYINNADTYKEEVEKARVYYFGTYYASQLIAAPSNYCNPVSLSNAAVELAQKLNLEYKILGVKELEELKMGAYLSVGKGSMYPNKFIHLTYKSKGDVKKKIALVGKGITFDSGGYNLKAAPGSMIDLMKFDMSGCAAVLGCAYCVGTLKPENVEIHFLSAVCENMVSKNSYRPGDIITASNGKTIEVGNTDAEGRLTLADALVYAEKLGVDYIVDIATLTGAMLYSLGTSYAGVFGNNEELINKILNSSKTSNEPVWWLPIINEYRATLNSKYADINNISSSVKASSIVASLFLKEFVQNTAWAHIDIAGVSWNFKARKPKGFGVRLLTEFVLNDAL

[14] = cytotoxicity toward DRD oncogenic fibroblasts, dose response, cell-based, non-viral oncogenic, luminescence (AID 1934); assay type: functional; settings: Homo sapiens
BJ [15] = assay: cells; assay type: functional, cell-based; settings: Homo sapiens
BJ [16] = assay: cytotoxicity toward BJ-TERT fibroblasts, dose response, cell-based, RAS-independent, luminescence (AID 1933); assay type: functional; settings: Homo sapiens
BJ [17] = assay: cytotoxicity toward BJ-TERT-LT-ST fibroblasts, dose response, cell-based, RAS-independent, luminescence (AID 1935); assay type: functional; settings: Homo sapiens;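 note: BJ fibroblasts immortalized with TERT plus LT and ST oncogenes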
Protein RecA = molecular target: T3, Protein RecA (Mycobacterium tuberculosis, UniProt P9WHJ3); assay: Fluorescence Cell-Free Homogeneous Dose Retest to Identify Inhibitors of RecA-Intein Splicing Activity. [Related pubchem assays (depositor defined):AID2097, AID2223, AID489010, AID492950]; assay type: functional
T3 sequence (P9WHJ3 whole entry): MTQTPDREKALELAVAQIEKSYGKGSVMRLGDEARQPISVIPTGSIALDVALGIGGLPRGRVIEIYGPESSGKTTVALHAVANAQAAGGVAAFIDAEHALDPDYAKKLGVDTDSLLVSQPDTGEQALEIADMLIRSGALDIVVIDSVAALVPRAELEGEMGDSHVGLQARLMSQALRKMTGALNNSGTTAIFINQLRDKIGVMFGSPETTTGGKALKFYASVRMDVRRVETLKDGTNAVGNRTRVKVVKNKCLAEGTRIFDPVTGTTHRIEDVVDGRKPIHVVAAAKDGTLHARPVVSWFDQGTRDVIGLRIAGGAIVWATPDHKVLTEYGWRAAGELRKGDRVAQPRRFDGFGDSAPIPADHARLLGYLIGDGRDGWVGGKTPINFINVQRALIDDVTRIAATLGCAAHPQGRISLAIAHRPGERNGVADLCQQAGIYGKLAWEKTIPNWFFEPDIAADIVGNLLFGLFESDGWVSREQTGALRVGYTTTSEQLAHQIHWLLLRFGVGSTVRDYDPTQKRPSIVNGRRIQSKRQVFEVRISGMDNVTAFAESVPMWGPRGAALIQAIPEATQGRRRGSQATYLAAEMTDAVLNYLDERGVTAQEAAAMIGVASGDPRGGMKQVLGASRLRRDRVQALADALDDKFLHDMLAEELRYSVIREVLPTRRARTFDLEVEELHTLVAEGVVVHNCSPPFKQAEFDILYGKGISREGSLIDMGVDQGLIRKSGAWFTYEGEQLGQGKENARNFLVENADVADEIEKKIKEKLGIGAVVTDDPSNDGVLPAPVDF

[18] = molecular target: T4, Replicative DNA helicase DnaB (Mycobacterium tuberculosis, UniProt P9WMR3); assay: DnaB intein splicing inhibitors, dose response, biochemical, cell-free fluorescence (AID 449749); assay type: functional
T4 sequence (P9WMR3 whole entry): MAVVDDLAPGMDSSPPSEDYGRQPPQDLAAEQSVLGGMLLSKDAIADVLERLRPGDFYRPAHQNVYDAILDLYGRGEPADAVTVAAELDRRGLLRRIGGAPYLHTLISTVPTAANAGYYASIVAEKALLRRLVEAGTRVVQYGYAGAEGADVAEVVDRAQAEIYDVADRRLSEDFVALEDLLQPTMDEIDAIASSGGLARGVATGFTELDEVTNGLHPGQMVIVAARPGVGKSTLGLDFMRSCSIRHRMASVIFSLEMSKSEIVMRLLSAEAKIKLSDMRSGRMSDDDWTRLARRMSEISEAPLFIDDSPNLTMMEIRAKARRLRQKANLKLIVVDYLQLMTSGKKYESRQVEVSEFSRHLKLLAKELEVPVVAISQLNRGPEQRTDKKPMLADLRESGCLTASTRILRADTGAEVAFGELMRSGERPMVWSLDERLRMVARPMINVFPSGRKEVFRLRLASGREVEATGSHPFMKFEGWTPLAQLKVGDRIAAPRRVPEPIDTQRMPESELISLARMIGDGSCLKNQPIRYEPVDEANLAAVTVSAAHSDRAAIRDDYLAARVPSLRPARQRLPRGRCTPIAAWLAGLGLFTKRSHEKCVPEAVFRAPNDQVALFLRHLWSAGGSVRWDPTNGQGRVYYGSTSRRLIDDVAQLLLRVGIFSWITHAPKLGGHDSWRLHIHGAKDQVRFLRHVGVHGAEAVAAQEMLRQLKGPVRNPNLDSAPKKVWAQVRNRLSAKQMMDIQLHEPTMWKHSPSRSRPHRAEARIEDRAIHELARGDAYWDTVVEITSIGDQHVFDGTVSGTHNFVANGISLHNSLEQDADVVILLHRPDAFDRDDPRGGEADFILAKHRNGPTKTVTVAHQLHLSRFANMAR

[19] = intracellular Trypanosoma cruzi inhibitors in host cells – cell-based, plate reader, cherry-pick samples, set 3, dose response (AID 651818); assay type: functional;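 note: compounds incubated with infected cells for about four days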

## Cn1c(=O)n(CCc2ccccc2)c(=O)c2c1ncn2Cc1ccccc1
[1]
  EC50: 97.4 µM (active)
[2]
  EC50: 47.7 µM (active)

## O=C(Nc1ccc(F)cc1F)NC1CCN(S(=O)(=O)c2ccc(F)cc2)CC1
[3]
  CC50: > 40 µM (active)

## COc1ccc2cnn(CCOc3cc(C)ccc3C(C)C)c(=O)c2c1OC
[3]
  CC50: > 40 µM (active)

## CCOc1cccc2sc(Nc3nc4ccc(NC(C)=O)cc4s3)nc12
[4]
  AC50: 9.66 µM (active)
[5]
  AC50: 5.46 µM (active)
[6]
  EC50: > 60 µM (not active)
[7]
  AC50: 24.5 µM (active)
[8]
  EC50: 23.3 µM (active)
Streptococcus
  EC50: > 150 µM (not active)
[9]
  EC50: 2.44 µM (active)
Streptokinase A
  EC50: > 150 µM (not active)

## CCN(CC)c1ccc(CNc2nc3ccccc3n2CCN2CCCCC2)cc1
[6]
  EC50: 7.56 µM (active)
[10]
  AC50: 680 nM (active)
[11]
  AC50: 2.64 µM (active)
INS1
  AC50: 7.16 µM (active)
[12]
  AC50: 10.2 µM (active)
[13]
  AC50: 1.51 µM (active)
Nonstructural protein 1
  IC50: 27 µM (active)
[9]
  EC50: 3.28 µM (active)

## CSCCC(NS(=O)(=O)c1ccc2nc(O)c(O)nc2c1)C(=O)O (stereo not given)
Leucine aminopeptidase
  IC50: 6.94 µM (active)

## Cc1cccc(N2CCN(C(=O)c3ccccc3NC(=O)C3CC=CCC3C(=O)O)CC2)c1 (stereo not given)
Leucine aminopeptidase
  IC50: 19.1 µM (active)

## Cc1cc(/C=C(\C#N)C(=O)NCc2ccco2)c(C)n1-c1ccc(C(=O)O)cc1
Leucine aminopeptidase
  IC50: 41.1 µM (active)

## O=C(NC(Cc1ccccc1)c1nc2ccccc2[nH]1)c1cccc([N+](=O)[O-])c1 (stereo not given)
[3]
  CC50: > 40 µM (active)

## CC(=O)c1cccc(NC(S)=NCCC2=CCCCC2)c1
[1]
  EC50: 22.6 µM (active)
[2]
  EC50: 34 µM (active)

## CC(C)N(C(=O)COC(=O)c1ccccc1C(=O)c1ccc(Cl)c([N+](=O)[O-])c1)C(C)C
[4]
  AC50: 34.2 µM (active)
[5]
  AC50: > 52 µM (inactive)
[14]
  EC50: > 150 µM (not active)
BJ [15]
  EC50: > 150 µM (not active)
[7]
  AC50: > 52 µM (inactive)
BJ [16]
  EC50: 15.1 µM (active)
BJ [17]
  EC50: > 75 µM (inconclusive)

## Clc1ccc(OCCCNCc2ccccc2)c(Br)c1
[1]
  EC50: 17.4 µM (active)
[2]
  EC50: 23.1 µM (active)

## COc1ccccc1C(NC(C)=O)c1c(O)ccc2ccc(O)cc12 (stereo not given)
[10]
  AC50: 2440 nM (active)
Protein RecA
  EC50: 2.89 µM (active)
[18]
  AC50: > 380 µM (inactive)

## C[C@@H]1CCCCO[C@H](CN(C)Cc2ccccc2)[C@@H](C)CN([C@H](C)CO)C(=O)c2cc(NC(=O)Nc3ccc(C(F)(F)F)cc3)ccc2O1
[19]
  AC50: 5.97 µM (active)

## C[C@@H]1CN([C@H](C)CO)C(=O)c2cc(NS(=O)(=O)c3ccc(Cl)cc3)ccc2O[C@H]1CN(C)Cc1ccc(Cl)c(Cl)c1
[19]
  AC50: 1.81 µM (active)

## C[C@@H]1CCCCO[C@H](CN(C)C(=O)Nc2cccc3ccccc23)[C@@H](C)CN([C@H](C)CO)C(=O)c2cc(NS(=O)(=O)c3ccc(Cl)cc3)ccc2O1
[19]
  AC50: 3.37 µM (active)

## COc1ccc(S(=O)(=O)Nc2ccc3c(c2)CC(=O)N([C@H](C)CO)C[C@@H](C)[C@@H](CN(C)Cc2ccc(-c4ccccc4)cc2)O3)cc1
[19]
  AC50: 2.35 µM (active)

## C[C@@H]1CN([C@@H](C)CO)C(=O)c2cccc(NS(=O)(=O)c3ccccc3)c2O[C@@H]1CN(C)Cc1ccc(-c2ccccc2)cc1
[19]
  AC50: 3.3 µM (active)

## C[C@H]1CN([C@@H](C)CO)C(=O)c2cccc(NC(=O)c3cnccn3)c2O[C@H]1CN(C)Cc1ccc(C(=O)Nc2ccccc2N)cc1
[19]
  AC50: 0.803 µM (active)

## CC1=NNC(=O)C1CCC(=O)N/N=C/C=C/c1ccccc1 (stereo not given)
Leucine aminopeptidase
  IC50: 51.4 µM (active)
